# Earlier results in patent US9572848B1, “Composition of matter for sexual dysfunction” (Aemes Research L.L.L.P., priority 2014, dated 2017).
# How the values were obtained:
# [1] = tested on: growth hormone (GH) levels; conditions: oral arginine, 9-gram dose; placebo 2.9 (+/−0.7)
# [2] = tested on: blood pressure; conditions: meta-analysis
structure (smiles),measurement,setting,value
N=C(N)NCCC[C@H](N)C(=O)O [L-arginine],Mean peak GH level,[1],6.4 (+/−1.3) μg/L
same,"Reduction of DBP, pooled estimate",[2],2.7 mmHg
same,"Reduction of SBP, pooled estimate",[2],5.4 mmHg
